Measured values: ChEMBL document CHEMBL1201862, “PubChem BioAssay data set” (2004)
“And” between values parts separate entries of the source, which are not always exact repeats. Equal values may be shown once.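 1) Cells in 96-well plates. 2) Compound, 48 h, 5 concentrations. 3) Linear interpolation between surrounding doses. 4) Unreached endpoint = highest concentration. GI50 = concentration required for 50% inhibition of growth.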 The source made the active and inactive calls. Cut-off read from the data, not from the text of the source: active = GI50 up to about 1.1 µM and inactive = higher.

Assays:
Test in all cases: growth of human tumour cells (NCI), 48 h
[1] = test system: 786-0
[2] = test system: A498
[3] = test system: A549
[4] = test system: ACHN
[5] = test system: BT-549
[6] = test system: CAKI-1
[7] = test system: CCRF-CEM
[8] = test system: COLO 205
[9] = test system: DU-145
[10] = test system: EKVX
[11] = test system: HCC 2998
[12] = test system: HCT-116
[13] = test system: HCT-15
[14] = test system: HL-60
[15] = test system: HOP-62
[16] = test system: HOP-92
[17] = test system: HT-29
[18] = test system: Hs-578T
[19] = test system: IGROV-1
[20] = test system: K562
[21] = test system: KM12
[22] = test system: LOX IMVI
[23] = test system: M14
[24] = test system: MCF7
[25] = test system: MDA-MB-231
[26] = test system: MDA-MB-435
[27] = test system: MDA-N
[28] = test system: MOLT-4
[29] = test system: Malme-3M
[30] = test system: NCI-H226
[31] = test system: NCI-H23
[32] = test system: NCI-H460
[33] = test system: NCI-H522
[34] = test system: NCI/ADR-RES
[35] = test system: OVCAR-3
[36] = test system: OVCAR-4
[37] = test system: OVCAR-5
[38] = test system: OVCAR-8
[39] = test system: PC-3
[40] = test system: RPMI-8226
[41] = test system: RXF 393
[42] = test system: SF-268
[43] = test system: SF-295
[44] = test system: SF-539
[45] = test system: SK-MEL-28
[46] = test system: SK-MEL-2
[47] = test system: SK-MEL-5
[48] = test system: SK-OV-3
[49] = test system: SN12C
[50] = test system: SNB-19
[51] = test system: SNB-75
[52] = test system: SR
[53] = test system: SW-620
[54] = test system: T47D
[55] = test system: TK-10
[56] = test system: U-251
[57] = test system: UACC-257
[58] = test system: UACC-62
[59] = test system: UO-31
[60] = test system: DMS-273
[61] = test system: M19-MEL

## O=C(NCCCCl)c1c(O)c2ccccc2[nH]c1=O
[1]
  GI50: > 61 µM (inactive)
[2]
  GI50: 32.4 µM (inactive)
[3]
  GI50: > 100 µM (inactive)
[4]
  GI50: > 100 µM (inactive)
[5]
  GI50: > 78 µM (inactive)
[6]
  GI50: > 100 µM (inactive)
[7]
  GI50: > 100 µM (inactive)
[8]
  GI50: > 100 µM (inactive)
[9]
  GI50: > 100 µM (inactive)
[10]
  GI50: 50.6 µM (inactive)
[11]
  GI50: > 76.2 µM (inactive)
[12]
  GI50: > 100 µM (inactive)
[13]
  GI50: > 100 µM
[14]
  GI50: > 100 µM (inactive)
[15]
  GI50: > 50.6 µM (inactive)
[16]
  GI50: > 43.3 µM (inactive)
[17]
  GI50: > 100 µM (inactive)
[18]
  GI50: > 56.8 µM (inactive)
[19]
  GI50: > 100 µM (inactive)
[20]
  GI50: > 100 µM (inactive)
[21]
  GI50: > 100 µM (inactive)
[22]
  GI50: > 100 µM (inactive)
[23]
  GI50: > 100 µM (inactive)
[24]
  GI50: > 91.8 µM (inactive)
[25]
  GI50: > 100 µM (inactive)
[26]
  GI50: > 100 µM (inactive)
[27]
  GI50: > 100 µM (inactive)
[28]
  GI50: > 100 µM (inactive)
[29]
  GI50: > 100 µM (inactive)
[30]
  GI50: > 100 µM (inactive)
[31]
  GI50: > 87.3 µM (inactive)
[32]
  GI50: > 100 µM (inactive)
[33]
  GI50: > 65.5 µM (inactive)
[34]
  GI50: > 71 µM (inactive)
[35]
  GI50: > 100 µM (inactive)
[36]
  GI50: > 100 µM (inactive)
[37]
  GI50: > 100 µM (inactive)
[38]
  GI50: > 100 µM (inactive)
[39]
  GI50: > 100 µM (inactive)
[40]
  GI50: > 100 µM (inactive)
[41]
  GI50: > 41.3 µM (inactive)
[42]
  GI50: > 72.1 µM (inactive)
[43]
  GI50: > 48.9 µM (inactive)
[44]
  GI50: > 54 µM (inactive)
[45]
  GI50: > 100 µM (inactive)
[46]
  GI50: > 94 µM (inactive)
[47]
  GI50: > 100 µM (inactive)
[48]
  GI50: > 80.5 µM (inactive)
[49]
  GI50: > 100 µM (inactive)
[50]
  GI50: > 100 µM (inactive)
[51]
  GI50: > 54.5 µM (inactive)
[52]
  GI50: > 100 µM (inactive)
[53]
  GI50: > 100 µM (inactive)
[54]
  GI50: > 73.3 µM (inactive)
[55]
  GI50: > 100 µM (inactive)
[56]
  GI50: > 100 µM (inactive)
[57]
  GI50: > 100 µM (inactive)
[58]
  GI50: > 50.9 µM (inactive)
[59]
  GI50: > 100 µM (inactive)

## C[n+]1c(-c2ccc(NC(=O)c3ccc(C(=O)Nc4ccc(-c5cn6ccccc6[n+]5C)cc4)cc3)cc2)cn2ccccc21
[1]
  GI50: 29 µM (inactive)
[2]
  GI50: 39.1 µM (inactive)
[3]
  GI50: > 100 µM (inactive)
[4]
  GI50: > 100 µM (inactive)
[5]
  GI50: > 100 µM (inactive)
[6]
  GI50: > 100 µM (inactive)
[7]
  GI50: > 65.6 µM (inactive)
[8]
  GI50: > 56.2 µM (inactive)
[9]
  GI50: > 100 µM (inactive)
[10]
  GI50: > 100 µM (inactive)
[11]
  GI50: > 100 µM (inactive)
[12]
  GI50: > 100 µM (inactive)
[13]
  GI50: > 100 µM
[14]
  GI50: 23.4 µM (inactive)
[15]
  GI50: > 100 µM (inactive)
[16]
  GI50: > 100 µM (inactive)
[17]
  GI50: > 100 µM (inactive)
[18]
  GI50: > 100 µM (inactive)
[19]
  GI50: > 66.5 µM (inactive)
[20]
  GI50: > 100 µM (inactive)
[21]
  GI50: > 82.6 µM (inactive)
[22]
  GI50: > 100 µM (inactive)
[23]
  GI50: > 100 µM (inactive)
[24]
  GI50: > 75 µM (inactive)
[25]
  GI50: > 42.9 µM (inactive)
[26]
  GI50: > 67.3 µM (inactive)
[27]
  GI50: > 69.8 µM (inactive)
[28]
  GI50: > 67.9 µM (inactive)
[29]
  GI50: 56.5 µM (inactive)
[30]
  GI50: > 100 µM (inactive)
[31]
  GI50: > 100 µM (inactive)
[32]
  GI50: > 100 µM (inactive)
[33]
  GI50: > 100 µM (inactive)
[34]
  GI50: > 100 µM (inactive)
[35]
  GI50: > 100 µM (inactive)
[36]
  GI50: > 100 µM (inactive)
[37]
  GI50: > 100 µM (inactive)
[38]
  GI50: > 100 µM (inactive)
[39]
  GI50: > 100 µM (inactive)
[40]
  GI50: 14.3 µM (inactive)
[41]
  GI50: 39.6 µM (inactive)
[42]
  GI50: > 100 µM (inactive)
[43]
  GI50: 47.5 µM (inactive)
[44]
  GI50: > 70.5 µM (inactive)
[45]
  GI50: > 100 µM (inactive)
[46]
  GI50: > 100 µM (inactive)
[47]
  GI50: 43.1 µM (inactive)
[48]
  GI50: > 100 µM (inactive)
[49]
  GI50: > 66.1 µM (inactive)
[50]
  GI50: > 100 µM (inactive)
[51]
  GI50: 60.8 µM (inactive)
[52]
  GI50: 18.5 µM (inactive)
[53]
  GI50: > 100 µM (inactive)
[54]
  GI50: > 100 µM (inactive)
[55]
  GI50: > 100 µM (inactive)
[56]
  GI50: > 73.3 µM (inactive)
[57]
  GI50: > 100 µM (inactive)
[58]
  GI50: > 100 µM (inactive)
[59]
  GI50: > 100 µM (inactive)

## C/C=C/C=C/CCCCCCCCCCCCC[C@]1(OC)C=C[C@@H](CC(=O)OC)OO1 [XESTIN A]
[60]
  GI50: 1.57 µM (inactive)
[12]
  GI50: 16.1 µM (inactive) and 10.1 µM (inactive)
[14]
  GI50: 3.59 µM (inactive)
[16]
  GI50: 1.88 µM (inactive)
[20]
  GI50: 12.2 µM (inactive) and 20.5 µM (inactive)
[23]
  GI50: 14.8 µM (inactive) and 17 µM (inactive)
[61]
  GI50: 16.9 µM (inactive) and 11 µM (inactive)
[29]
  GI50: 26.7 µM (inactive) and 21.4 µM (inactive)
[32]
  GI50: 22.4 µM (inactive) and 15.1 µM (inactive)
[40]
  GI50: 7.45 µM (inactive) and 13.5 µM (inactive)
[42]
  GI50: 17.3 µM (inactive) and 21.7 µM (inactive)
[44]
  GI50: 15.2 µM (inactive) and 19.7 µM (inactive)
[45]
  GI50: 15.3 µM (inactive) and 17.5 µM (inactive)
[46]
  GI50: 15.5 µM (inactive) and 25.5 µM (inactive)
[47]
  GI50: 15.6 µM (inactive) and 10.1 µM (inactive)
[48]
  GI50: 28.6 µM (inactive) and 19.5 µM (inactive)
[49]
  GI50: 12.9 µM (inactive) and 21.6 µM (inactive)
[50]
  GI50: 17.8 µM (inactive)
[51]
  GI50: 17.4 µM (inactive) and 9.64 µM (inactive)
[52]
  GI50: 2.36 µM (inactive)
[56]
  GI50: 14.7 µM (inactive) and > 10 µM (inactive)
[57]
  GI50: 20.2 µM (inactive) and 17.4 µM (inactive)
[58]
  GI50: 14.1 µM (inactive) and 15.3 µM (inactive)
[59]
  GI50: 2.77 µM (inactive)
